Test results reported in patent US8822503B2, “2-pyridone compounds” (Taisho Pharmaceutical Co., Ltd, priority 2009, dated 2014).

target: T1, human liver GK (Homo sapiens, UniProt P35557); experiment: GK activation test; format: biochemical; conditions: test compound concentration needed to activate 50% of maximum activation ability; 4 mM 14C-labeled glucose, 2 mM ATP, room temperature, 20 minutes
T1 construct: GST (glutathione S-transferase) (N); made in house; host or cells: E. coli
T1 sequence (P35557 1-466 isoform P35557-2): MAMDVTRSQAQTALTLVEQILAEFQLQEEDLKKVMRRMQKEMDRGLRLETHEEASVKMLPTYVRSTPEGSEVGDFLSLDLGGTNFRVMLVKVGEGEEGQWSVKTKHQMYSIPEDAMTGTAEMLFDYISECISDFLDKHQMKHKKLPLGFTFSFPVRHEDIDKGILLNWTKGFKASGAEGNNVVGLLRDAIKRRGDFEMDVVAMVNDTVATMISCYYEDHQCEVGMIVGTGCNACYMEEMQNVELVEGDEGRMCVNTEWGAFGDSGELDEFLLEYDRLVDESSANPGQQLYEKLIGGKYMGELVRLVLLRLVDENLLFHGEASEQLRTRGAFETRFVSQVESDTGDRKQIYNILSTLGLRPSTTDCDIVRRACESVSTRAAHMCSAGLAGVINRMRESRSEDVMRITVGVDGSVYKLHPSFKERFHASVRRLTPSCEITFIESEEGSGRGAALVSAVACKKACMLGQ
Experimental: The GK activation test for the test compounds was performed by the method of Irwin A. Rose et al. (J. Biol. Chem. 1964 January; 239:12-7) with partial modifications.
The enzyme source used in this assay, human liver GK, was expressed in E. coli as a fusion protein with GST (glutathione S-transferase) added to the amino terminus and was purified using Glutathione Sepharose 4B (Amersham Biosciences).
The test was carried out using flat-bottom 96-well plates (Sumitomo Bakelite Co., Ltd.). A solution of the test compound in dimethyl sulfoxide (DMSO) and DMSO as a control were added to each well of the plates at a final DMSO concentration of 1%. 25 mM Hepes-KOH (pH=7.1), 25 mM KCl, 2 mM MgCl2, 2 mM ATP, 4 mM ^14C-labeled glucose (Muromachi Yakuhin) and 1 mM DTT (dithiothreitol) were further added at the indicated final concentrations, respectively. Finally, human liver GK was added at 0.24 microgram per well and the reaction was started. The reaction was carried out at room temperature.
After 20 minutes, AG1-X4 resin (BioRad) suspended in 25 mM Hepes-KOH (pH=7.1) was added and the reaction product, labeled glucose 6-phosphate, was allowed to bind thereto. The whole volume was transferred to MultiScreen plates (Millipore) and the resin was washed with water. Thereafter, the labeled glucose 6-phosphate binding to the resin was eluted with a 0.5 M NaCl solution. The labeling activity of the eluted labeled glucose 6-phosphate was measured as an index of GK activity.
The GK activity maximally activated by the test compound was described as maximum activation ability, and the test compound concentration needed to activate 50% of that ability was described as EC50.

Row | Compound | EC50 [µM]
1 | O=C1CC[C@H](CC(c2ccc(C(F)(F)F)cc2)c2ccc(C3CC3)c(=O)[nH]2)N1 (single isomer, unassigned) [Example 4-248] | 0.5 to 3
2 | O=C1CC[C@H](CC(c2ccc(C(F)(F)F)cc2)c2ccc(C3CC3)c(=O)[nH]2)N1 (single isomer, unassigned) [Example 4-249] | 3 to 10
3 | O=C1CC[C@H](CC(c2ccc(O)c(Cl)c2)c2ccc(C3CC3)c(=O)[nH]2)N1 (single isomer, unassigned) [Example 4-250] | 0.5 to 3
4 | O=C1CC[C@H](CC(c2ccc(O)c(Cl)c2)c2ccc(C3CC3)c(=O)[nH]2)N1 (single isomer, unassigned) [Example 4-251] | 3 to 10
5 | O=C1CC[C@H](CC(c2ccc(Cl)cc2)c2ccc(C3CC3)c(=O)[nH]2)N1 (single isomer, unassigned) [Example 4-252] | 0.5 to 3
6 | O=C1CC[C@H](CC(c2ccc(C(F)(F)F)c(Cl)c2)c2ccc(C3CC3)c(=O)[nH]2)N1 (single isomer, unassigned) [Example 4-254] | 0.01 to 0.5
7 | O=C1CC[C@H](CC(c2ccc(C(F)(F)F)c(Cl)c2)c2ccc(C3CC3)c(=O)[nH]2)N1 (single isomer, unassigned) [Example 4-255] | 3 to 10
8 | Cc1ccc(C(C[C@H]2CCC(=O)N2)c2ccc(C3CC3)c(=O)[nH]2)cc1 (single isomer, unassigned) [Example 4-294] | 0.5 to 3
9 | CC(C)Oc1ccc(C(C[C@H]2CCC(=O)N2)c2ccc(Cl)c(=O)[nH]2)cc1Cl (single isomer, unassigned) [Example 4-296] | 0.5 to 3
10 | CC(C)Oc1ccc(C(C[C@H]2CCC(=O)N2)c2ccc(Cl)c(=O)[nH]2)cc1Cl (single isomer, unassigned) [Example 4-297] | 3 to 10
11 | Cc1cc(C(C[C@H]2CCC(=O)N2)c2ccc(C3CC3)c(=O)[nH]2)ccc1S(=O)(=O)C1CC1 (single isomer, unassigned) [Example 4-298] | 0.01 to 0.5
12 | Cc1cc(C(C[C@H]2CCC(=O)N2)c2ccc(C3CC3)c(=O)[nH]2)ccc1S(=O)(=O)C1CC1 (single isomer, unassigned) [Example 4-299] | 3 to 10
13 | CCc1ccc(C(C[C@H]2CCC(=O)N2)c2ccc(C3CC3)c(=O)[nH]2)cc1 (single isomer, unassigned) [Example 4-302] | 0.01 to 0.5
14 | CCc1ccc(C(C[C@H]2CCC(=O)N2)c2ccc(C3CC3)c(=O)[nH]2)cc1 (single isomer, unassigned) [Example 4-303] | 3 to 10
15 | O=C1CC[C@H](CC(c2ccc(S(=O)(=O)C3CC3)c(Cl)c2)c2ccc(Cl)c(=O)[nH]2)N1 (single isomer, unassigned) [Example 4-304] | 0.01 to 0.5
16 | O=C1CC[C@H](CC(c2ccc(S(=O)(=O)C3CC3)c(Cl)c2)c2ccc(Cl)c(=O)[nH]2)N1 (single isomer, unassigned) [Example 4-305] | 3 to 10
17 | O=C1CC[C@H](CC(c2ccc(S(=O)(=O)C3CC3)cc2)c2ccc(C3CC3)c(=O)[nH]2)N1 (single isomer, unassigned) [Example 4-306] | 0.01 to 0.5
18 | O=C1CC[C@H](CC(c2ccc(S(=O)(=O)C3CC3)cc2)c2ccc(C3CC3)c(=O)[nH]2)N1 (single isomer, unassigned) [Example 4-307] | 3 to 10
19 | CCc1ccc(C(C[C@H]2CCC(=O)N2)c2ccc(Cl)c(=O)[nH]2)cc1 (single isomer, unassigned) [Example 4-308] | 0.5 to 3
20 | CCc1ccc(C(C[C@H]2CCC(=O)N2)c2ccc(Cl)c(=O)[nH]2)cc1 (single isomer, unassigned) [Example 4-309] | 3 to 10
21 | Cc1ccc(C(C[C@H]2CCC(=O)N2)c2ccc(Cl)c(=O)[nH]2)cc1Cl (single isomer, unassigned) [Example 4-310] | 0.5 to 3
22 | Cc1ccc(C(C[C@H]2CCC(=O)N2)c2ccc(Cl)c(=O)[nH]2)cc1Cl (single isomer, unassigned) [Example 4-311] | 3 to 10
23 | CCCc1ccc(C(C[C@H]2CCC(=O)N2)c2ccc(Cl)c(=O)[nH]2)cc1 (single isomer, unassigned) [Example 4-312] | 0.5 to 3
